Measurements as given in patent US11981686B2, “Urea compound having substituent” (DAIICHI SANKYO COMPANY, LIMITED, priority 2019, dated 2024).

The compounds below were run against SIRT6 enzyme (Homo sapiens, UniProt Q8N6T7) (assay: Measurement of deacetylation activity (SIRT6, AlphaLISA, H3K9(Ac) peptide)). Settings: SIRT6 25 ng/mL, H3K9(Ac) biotin peptide 2 nM, NAD 10 μM, room temperature 30 minutes, duplicate.
Type: biochemical
Summary of the method: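 SIRT6 (25 ng/mL final) in Tris-HCl pH 8.0 buffer with compound (e.g. 0.046–100 μM final) reacted with biotin-H3K9(Ac) peptide (2 nM) and NAD+ (10 μM), 30 min, room temperature. Stopped with nicotinamide plus AlphaLISA anti-unmodified H3K9/K27 beads, 60 min; EC150 (150% relative activity) from sigmoidal fit.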

SIRT6 enzyme, sequence (Q8N6T7 whole entry, species assumed): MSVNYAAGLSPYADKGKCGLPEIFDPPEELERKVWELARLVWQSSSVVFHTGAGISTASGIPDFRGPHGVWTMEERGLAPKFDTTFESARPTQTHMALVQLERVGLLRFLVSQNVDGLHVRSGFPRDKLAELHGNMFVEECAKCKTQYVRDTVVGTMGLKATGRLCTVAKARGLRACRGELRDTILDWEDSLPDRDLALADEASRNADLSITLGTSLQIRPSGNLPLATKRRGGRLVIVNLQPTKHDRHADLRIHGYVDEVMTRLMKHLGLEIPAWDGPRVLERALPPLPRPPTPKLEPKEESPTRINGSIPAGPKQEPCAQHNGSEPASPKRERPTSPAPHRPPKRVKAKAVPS

Row | Compound | EC150 (the concentration of the compound showing a relative enzyme activity of 150%)
1 | C[C@H](CO)NC(=O)Nc1nc2c(s1)[C@@H]1COC[C@H](C2)N1c1nc2cc(Cl)ccc2o1 [Example 59, N-[(4S,8S)-10-(5-chloro-1,3-benzoxazol-2-yl)-4,7,8,9-tetrahydro-5H-4,8-epiminooxocino[5,4-d][1,3]thiazol-2-yl]-N′-[(2R)-1-hydroxypropan-2-yl]urea] | 0.44 μm
2 | CCOC(=O)N1CC2Cc3nc(NC(=O)NC)sc3C(C1)N2c1nc(C2(C(F)(F)F)CC2)no1 (stereo not drawn) [Example 134, Ethyl 2-[(methylcarbamoyl)amino]-10-{3-[1-(trifluoromethyl)cyclopropyl]-1,2,4-oxadiazol-5-yl}-4,7,8,9-tetrahydro-4,8-epimino[1,3]thiazolo[5,4-d]azocine-6(5H)-carboxylate] | 3.5 μm
3 | CNC(=O)Nc1nc2c(s1)C1CN(C(C)=O)CC(C2)N1c1ncc(-c2cccc(OC)n2)o1 (stereo not drawn) [Example 126, N-{6-acetyl-10-[5-(6-methoxypyridin-2-yl)-1,3-oxazol-2-yl]-4,5,6,7,8,9-hexahydro-4,8-epimino[1,3]thiazolo[5,4-d]azocin-2-yl}-N′-methylurea] | 1 μm
4 | CNC(=O)Nc1nc2c(s1)C1CN(C(=O)OC)CC(C2)N1c1nc(C23CCC(F)(CC2)C3)no1 (stereo not drawn) [Example 133, Methyl 10-[3-(4-fluorobicyclo[2.2.1]heptan-1-yl)-1,2,4-oxadiazol-5-yl]-2-[(methylcarbamoyl)amino]-4,7,8,9-tetrahydro-4,8-epimino[1,3]thiazolo[5,4-d]azocin-6(5H)-carboxylate] | 1.4 μm
5 | CNC(=O)Nc1nc2c(s1)C1CN(C(=O)OC)CC(C2)N1c1nc2cc(OC)ccc2o1 (stereo not drawn) [Example 141, Methyl 10-(5-methoxy-1,3-benzoxazol-2-yl)-2-[(methylcarbamoyl)amino]-4,7,8,9-tetrahydro-4,8-epimino[1,3]thiazolo[5,4-d]azocine-6(5H)-carboxylate] | 0.58 μm
6 | C[C@@H](O)CNC(=O)Nc1nc2c(s1)CN(c1cc(C3CCC(F)(F)CC3)on1)CC2 [Example 153, N-{5-[5-(4,4-difluorocyclohexyl)-1,2-oxazol-3-yl]-4,5,6,7-tetrahydro[1,3]thiazolo[5,4-c]pyridin-2-yl}-N′-[(2R)-2-hydroxypropyl]urea] | 2.1 μm
7 | CNC(=O)Nc1nc2c(s1)CN(c1nc(-c3cccc(OC(F)(F)F)c3)no1)CC2 [Example 8, N-methyl-N′-(5-{3-[3-(trifluoromethoxy)phenyl]-1,2,4-oxadiazol-5-yl}-4,5,6,7-tetrahydro[1,3]thiazolo[5,4-c]pyridin-2-yl)urea] | 3.6 μm
8 | COc1cccc(-c2noc(N3CCc4nc(NC(=O)NC5CCOCC5)sc4C3)n2)c1 [Example 108, N-{5-[3-(3-methoxyphenyl)-1,2,4-oxadiazol-5-yl]-4,5,6,7-tetrahydro[1,3]thiazolo[5,4-c]pyridin-2-yl}-N′-oxan-4-ylurea] | 2.4 μm
9 | C[C@H](CO)NC(=O)Nc1nc2c(s1)CN(c1nc(C3CCC(F)(F)CC3)no1)CC2 [Example 5, N-{5-[3-(4,4-difluorocyclohexyl)-1,2,4-oxadiazol-5-yl]-4,5,6,7-tetrahydro[1,3]thiazolo[5,4-c]pyridin-2-yl}-N′-[(2R)-1-hydroxypropan-2-yl]urea] | 1.5 μm
10 | O=C(Nc1nc2c(s1)[C@@H]1COC[C@H](C2)N1c1ncc(-c2cccc(C(F)F)c2)o1)N[C@H]1C[C@H](O)C1 [Example 166, N-(10-{5-[3-(difluoromethyl)phenyl]-1,3-oxazol-2-yl}-4,7,8,9-tetrahydro-5H-4,8-epiminooxocino[5,4-d][1,3]thiazol-2-yl)-N′-[(1r,3r)-3-hydroxycyclobutyl]urea] | 0.21 μm
11 | CNC(=O)Nc1nc2c(s1)[C@@H]1COC[C@H](C2)N1c1nnc(-c2cccc(OC(F)F)c2)o1 [Example 22, N-[(4S,8S)-10-{5-[3-(difluoromethoxy)phenyl]-1,3,4-oxadiazol-2-yl}-4,7,8,9-tetrahydro-5H-4,8-epiminooxocino[5,4-d][1,3]thiazol-2-yl]-N′-methylurea] | 1.3 μm
12 | COc1cccc(-c2cnc(N3[C@@H]4COC[C@H]3c3sc(NC(=O)NCC(C)(C)O)nc3C4)o2)n1 [Example 184, N-(2-hydroxy-2-methylpropyl)-N′-{(4S,8S)-10-[5-(6-methoxypyridin-2-yl)-1,3-oxazol-2-yl]-4,7,8,9-tetrahydro-5H-4,8-epiminooxocino[5,4-d][1,3]thiazol-2-yl}urea] | 0.91 μm
13 | O=C(Nc1nc2c(s1)[C@@H]1COC[C@H](C2)N1c1ncc(-c2cccc(OC(F)F)c2)o1)N[C@@H]1CCOC1 [Example 73, N-[(4S,8S)-10-{5-[3-(difluoromethoxy)phenyl]-1,3-oxazol-2-yl}-4,7,8,9-tetrahydro-5H-4,8-epiminooxocino[5,4-d][1,3]thiazol-2-yl]-N′-[(3R)-oxolan-3-yl]urea] | 0.4 μm
14 | COc1cc(-c2noc(N3C4COCC3c3sc(NC(=O)N[C@H](C)CO)nc3C4)n2)ccc1F (stereo partly drawn) [Example 83, N-{10-[3-(4-fluoro-3-methoxyphenyl)-1,2,4-oxadiazol-5-yl]-4,7,8,9-tetrahydro-5H-4,8-epiminooxocino[5,4-d][1,3]thiazol-2-yl}-N′-[(2R)-1-hydroxypropan-2-yl]urea] | 0.68 μm
15 | COc1cc2nc(N3[C@@H]4COC[C@H]3c3sc(NC(=O)NCC(C)(C)O)nc3C4)oc2cc1C [Example 44, N-(2-hydroxy-2-methylpropyl)-N′-[(4S,8S)-10-(5-methoxy-6-methyl-1,3-benzoxazol-2-yl)-4,7,8,9-tetrahydro-5H-4,8-epiminooxocino[5,4-d][1,3]thiazol-2-yl]urea] | 2.3 μm
16 | CNC(=O)Nc1nc2c(s1)C1CN(C(=O)OC)CC(C2)N1c1cc(-c2ccc(F)cc2)on1 (stereo not drawn) [Example 64, Methyl 10-[5-(4-fluorophenyl)-1,2-oxazol-3-yl]-2-[(methylcarbamoyl)amino]-4,7,8,9-tetrahydro-4,8-epimino[1,3]thiazolo[5,4-d]azocine-6(5H)-carboxylate] | 0.49 μm
17 | C[C@H](CO)NC(=O)Nc1nc2c(s1)CN(c1nccc(C3CCCOC3)n1)CC2 (stereo partly drawn) [Example 191, N-[(2R)-1-hydroxypropan-2-yl]-N′-{5-[4-(oxan-3-yl)pyrimidin-2-yl]-4,5,6,7-tetrahydro[1,3]thiazolo[5,4-c]pyridin-2-yl}urea] | 1.2 μm
18 | CNC(=O)Nc1nc2c(s1)C1CN(C(C)=O)CC(C2)N1c1ncc(-c2cccc(Cl)c2)o1 (stereo not drawn) [Example 139, N-{6-acetyl-10-[5-(3-chlorophenyl)-1,3-oxazol-2-yl]-4,5,6,7,8,9-hexahydro-4,8-epimino[1,3]thiazolo[5,4-d]azocin-2-yl}-N′-methylurea] | 0.36 μm
19 | CC(C)(O)CNC(=O)Nc1nc2c(s1)[C@@H]1COC[C@H](C2)N1c1nc2cc(C(F)(F)F)ccc2o1 [Example 144, N-(2-hydroxy-2-methylpropyl)-N′-{(4S,8S)-10-[5-(trifluoromethyl)-1,3-benzoxazol-2-yl]-4,7,8,9-tetrahydro-5H-4,8-epiminooxocino[5,4-d][1,3]thiazol-2-yl}urea] | 0.61 μm
20 | C[C@@H](O)CNC(=O)Nc1nc2c(s1)[C@@H]1COC[C@H](C2)N1c1cc(-c2ccc(F)cc2)on1 [Example 65, N-{(4S,8S)-10-[5-(4-fluorophenyl)-1,2-oxazol-3-yl]-4,7,8,9-tetrahydro-5H-4,8-epiminooxocino[5,4-d][1,3]thiazol-2-yl}-N′-[(2R)-2-hydroxypropyl]urea] | 2.1 μm
21 | CS(=O)(=O)N1CC2Cc3nc(NC(=O)NC4CCOCC4)sc3C(C1)N2c1nc(-c2ccc(F)cc2)no1 (stereo not drawn) [Example 30, N-{10-[3-(4-fluorophenyl)-1,2,4-oxadiazol-5-yl]-6-(methanesulfonyl)-4,5,6,7,8,9-hexahydro-4,8-epimino[1,3]thiazolo[5,4-d]azocin-2-yl}-N′-oxan-4-ylurea] | 0.18 μm
22 | CNC(=O)Nc1nc2c(s1)CN(c1nnc(-c3ccc(F)c(C)c3)o1)CC2 [Example 9, N-{5-[5-(4-fluoro-3-methylphenyl)-1,3,4-oxadiazol-2-yl]-4,5,6,7-tetrahydro[1,3]thiazolo[5,4-c]pyridin-2-yl}-N′-methylurea] | 1.2 μm
23 | CNC(=O)Nc1nc2c(s1)C1CN(C(C)=O)CC(C2)N1c1nc2cc(F)ccc2o1 (stereo not drawn) [Example 130, N-[6-acetyl-10-(5-fluoro-1,3-benzoxazol-2-yl)-4,5,6,7,8,9-hexahydro-4,8-epimino[1,3]thiazolo[5,4-d]azocin-2-yl]-N′-methylurea] | 3.7 μm
24 | CNC(=O)Nc1nc2c(s1)C1COCC(C2)N1c1nnc(-c2cccc(C(F)F)c2)o1 (stereo not drawn) [Example 109, N-(10-{5-[3-(difluoromethyl)phenyl]-1,3,4-oxadiazol-2-yl}-4,7,8,9-tetrahydro-5H-4,8-epiminooxocino[5,4-d][1,3]thiazol-2-yl)-N′-methylurea] | 1.4 μm
